One compound from US7109223B2, “Oxazolidin-2-one and thiazolidin-2-one derivatives for use as EP4 receptor agonists in the treatment of glaucoma” (Merck & Co. Inc., priority 2002, dated 2006) can be followed below.

Experiment [1] relates to ROS 17/2.8 rat osteosarcoma cells. Put plainly: Effect on intracellular cAMP in ROS 17/2.8 cells. Format: cell-based. The procedure: (§1) RCT-1 and RCT-3 are clonal cell lines immortalized by SV-40 large T antigen from cells released from fetal rat calvair by a cmbination collagenase/hyaluronidase digestion. RCT-1 cells, derived from cells released during the first 10 minutes of digestion (fraction I), are cultured in RPMI 1640 medium (BRL) with 10% fetal bovine serum and 0.4 mg/ml G418 (BRL). These cells differentiate and express osteoblastic features upon retinoic acid treatment. RCT-3 cells, immortalized from osteoblast-enriched fraction III cells, are cultured in F-12 medium (BRL) with 5% Fetal bovine serum and 0.4 mg/ml G418. TRAB-11 cells are also immortalized by SV40 large T antigen from adult rat tibia and are cultured in RPMI 1640 medium with 10% FBS and 0.4 mg/ml G418. ROS 17/2.8 rat osteosarcoma cells are cultured in F-12 containing 5% FBS. Osteoblast-enriched (fraction III) primary fetal rat calvaria cells are obtained by collagenase/hyaluronidase digestion of calvariae of 19 day-old rat fetuses. See Rodan et al., Growth stimulation of rat calvaria osteoblastic cells by acidic FGF, Endocrinology, 121, 1919–1923 (1987), which is incorporated by reference herein in its entirety. Cells are released during 30–50 minutes digestion (fraction III) and are cultured in F-12 medium containing 5% FBS. […]

Experiment [2] deals with RCT-3 cells. Put plainly: Effect on intracellular cAMP in RCT-3 cells. Type of experiment: cell-based, rat. The protocol: as §1
The subject of another experiment is TRAB-11 cells. Put plainly: Effect on intracellular cAMP in TRAB-11 cells. Format: cell-based, rat. The protocol: as §1
For another experiment, the system named is RP-1 periosteal cells. Put plainly: EP4 and EP2 mRNA levels in RP-1 periosteal cells (Northern blot). Type of experiment: cell-based, rat. As to conditions: RP-1 cells. The protocol:
RP-1 periosteal cells are spontaneously immortalized from primary cultures of periosteal cells from tibae of 4-week old Sprague-Dawley rats and are cultured in DMEM (BRL, Gaithersburg, Md.) with 10% fetal bovine serum (JRH Biosciences, Lenexa, Kans.).
(§2) Total RNA is extracted from the tibial metaphysis or diaphysis and calvaria using a guanidinium isothiocyanate-phenol-chloroform method after pulverizing frozen bone samples by a tissue homogenizer. See P. Chomczynski et al., Single-step method of RNA isolation by acid guanidium thiocyanate-phenol-chloroform extraction, Analyt Biochem, 162, 156–159 (1987), which is incorporated by reference herein in its entirety. RNA samples ([…]) are separated on 0.9% agarose/formaldehyde gels and transferred onto nylon membranes (Boehringer Mannheim, Germany). Membranes are prehybridized in Hybrisol I (Oncor, Gaithersburg, Md.) and 0.5 mg/ml sonicated salmon sperm DNA (Boehringer) at 42° C. for 3 hours and are hybridized at 42° C. with rat EP2 and mouse EP4 cDNA probes labeled with [^32P]-dCTP (Amersham, Buckinghamshire, UK) by random priming using the rediprime kit (Amersham). After hybridization, membranes are washed 4 times in 2× SSC+0.1% SDS at room temperature for a total of 1 hour and once with 0.2× SSC+0.1% SDS at 55° C. for 1 hour and then exposed to Kodak XAR 2 film at −70° C. using intensifying screens. After developing the films, bound probes are removed twice with 0.1% SDS at 80° C. and membranes are hybridized with a human GAPDH (Glyceraldehyde 3-Phosphate Dehydrogenase) cDNA probe (purchased from Clontech, Palo Alto, Calif.) for loading control.
PGE2 enhances its own production via upregulation of cyclooxygenase 2 expression in osteoblasts and in bone tissue thus autoamplifying its own effects. PGE2 also increases the levels of EP4 mRNA. RP-1 cells are immortalized from a primary culture of adult rat tibia periosteum is examined. These cells express osteoblast phenotypic markers upon confluence and form mineralized bone matrix when implanted in nude mice. […]

The subject of experiment [3] is RCT-3 cells. Put plainly: EP4 mRNA levels in RCT-3 cells (Northern blot). Type of experiment: cell-based, rat. The protocol: as §1
In the next experiment the test system is bone tissue. Put plainly: EP4 and EP2 mRNA levels in vivo in bone tissue (Northern blot). Further details: species or system rat. The procedure:
(§3) For mRNA localization experiments, 5-week old Sprague-Dawley rats (Charles River) are euthanized by CO2, their tibiae and calvariae are excised, cleaned of soft tissues and frozen immediately in liquid nitrogen. For EP4 regulation experiments, 6-week old rats are given a single injection of either vehicle (7% ethanol in sterile water) or an anabolic dose of PGE2 (Cayman Chemical, Ann Arbor, Mich.), 3–6 mg/kg in the same vehicle) intraperitoneally. Animals are euthanized at several time points post-injection and their tibiae and calvariae, as well as samples from lung and kidney tissues are frozen in liquid nitrogen.
as §2, with “control. […]” for “control.”

Another experiment deals with bone marrow cells. As to the kind of experiment: Localization of EP4 mRNA expression in bone tissue (in situ hybridization). Format: in vivo, rat. The note with it: rats, single anabolic dose. The procedure:
as §3
Frozen tibiae are sectioned coronally at […] thickness and sections are mounted on charged slides (Probe On Plus, Fisher Scientific, Springfield, N.J.) and are kept at −70° C. until hybridization. cRNA probes are labeled with ^35S-UTPgS (ICN, Costa Mesa, Calif.) using a Riboprobe II kit (Promega Madison, Wis.). Hybridization is performed overnight at 50° C. […]
In situ hybridization is used in order to localize cells expressing EP4 in bone. In control experiment (vehicle-injected) rats, low expression of EP4 is detected in bone marrow cells. […]

The structures appear in SMILES notation. Entries after “also recorded” stand apart in the source; their conditions may differ.

On to `CCCCC[C@H](O)/C=C/[C@H]1[C@H](O)CC(=O)[C@@H]1C/C=C\CCCC(=O)O` [PGE2], for which the figures for the “effect on intracellular cAMP” value (in experiment [1]; in the experiment on RCT-3 cells [2]; in the experiment on TRAB-11 cells) were “no effect”, “markedly induced” and “markedly induced”, respectively. The “EP2 mRNA” value in the experiment on RP-1 periosteal cells was “not expressed; also recorded: does not induce”. For the same compound, the “EP4 mRNA levels” value in the experiment on RP-1 periosteal cells (10^−6M) is given as “rapidly increases”; in the experiment with RCT-3 cells [3] it was “no effect”. In addition, in the experiment on RP-1 periosteal cells (10^−6M), the “time of peak EP4 mRNA levels after treatment” value is 2 h. The “time of peak EP4 mRNA levels in the tibial diaphysis after injection” value in the experiment on bone tissue (five-week-old male rats, 3–6 mg/Kg) is recorded as 2 h. Also, in the experiment with bone tissue (five-week-old male rats, 3–6 mg/Kg, systemic administration), the “EP4 mRNA levels in the tibial diaphysis” value is given as “rapidly increased”. Further, the “EP2 mRNA in bone tissue” value in the experiment on bone tissue (rats) is given as “does not induce”. The “expression of EP4 in bone marrow cells” value in the experiment with bone marrow cells is recorded as “increased”.
